According to paper PMC8116058, “De novo macrocyclic peptides dissect energy coupling of a heterodimeric ABC transporter by multimode allosteric inhibition” (eLife, 2021):
Positions of bridges follow the written chain, without caps; N, C: chain ends. Non-standard residues stand in square brackets, D forms with d. Residues, ends and D or L forms follow the SMILES beside them. *: point of attachment. 5FAM = O=C1OC2(c3ccc(O)cc3Oc3cc(O)ccc32)c2ccc(C(=O)*)cc21; βAla = NCCC(=O)O

Tests used:
[1] = tested on: wild-type TmrAB in liposomes; experiment: Single-liposome flow cytometry transport assay; format: biochemical, Thermus thermophilus; conditions: for Peptide transport in two successive IF-to-OF cycles: 5 min 45°C / 60 min 4°C, repeated; for Transported C4^ATTO655, Peptides/liposome: TmrAB 0.4 µM, ATP 3 mM, ATP without CP 84.57, ADP 3.52; for Transported C4^ATTO655, Peptides/liposome / Peptides/liposome, time course / Mean fluorescence intensity * 10^3, time course: C4^ATTO655 1 µM; for Peptides/liposome, two consecutive transport cycles: ADP background corrected; for Peptides/liposome, time course: corrected by ADP background
Experimental: To investigate whether an IF-to-OF transition and conformational arrest by CP13^F or CP14^F can still result in a productive substrate translocation, we followed peptide transport by wild-type TmrAB by single liposome-based flow cytometry (Figure 6A). […] CPs block multiple-turnover transport monitored by quantitative flow cytometry. (A) Single turnover by IF-to-OF switch monitored by single-liposome flow cytometry. […] Transport reactions were stopped by the addition of EDTA (10 mM). 100,000 proteoliposomes were analyzed by flow cytometry monitoring fluorescein and ATTO655 intensities. […] (C, D) Slowdown of multiple-turnover substrate transport. […] Transported peptides per liposomes were evaluated and corrected by ADP background levels as described in (B). Transport kinetics were fitted monoexponentially. […] (E) Two consecutive transport cycles. […] Transported peptides per liposome were evaluated as described in (B) and corrected by background levels in the presence of ADP. […] Figure 6-source data 1. Source data for Figure 6. Figure 6-figure supplement 1. Linear regression of quantitative flow cytometry analysis. (A) Gating strategy. Liposomes were selected according to side and forward scatter areas. Single liposomes were gated based on the height of forward scatter correlated to the area of forward scatter. […] Detergent was removed, and liposomes were extensively washed by centrifugation. […] Equal concentrations of fluorescein served as loading control (right). (C) Linear regression. […] Mean values ± SD (n = 3) are shown. Figure 6-figure supplement 1-source data 1. Source Data for Figure 6-figure supplement 1. [drawing 5] […] To confirm the conformational arrest of wild-type TmrAB by CP13^F and the slow turnover in the presence of CP14^F, we examined two successive cycles of conformational transitions by flow cytometry. […] Both steps were repeated to yield two consecutive cycles of conformational transitions. […] Taken together, the macrocyclic peptides CP13 and CP14 stabilize a pre-hydrolysis state, thus allowing a single-turnover translocation along the IF-to-OF switch. […] Transport reactions were stopped by adding EDTA (10 mM). […] For regression analysis, liposomes were loaded with increasing amounts of peptides to convert the fluorescence intensities into the number of peptides per liposome ([Stefan et al., 2020]). […] Equal amounts of carboxyfluorescein (Sigma-Aldrich) served as loading control. Detergent was removed by adding SM-2 Bio-beads (Bio-Rad) as detailed above. Liposomes were harvested for 30 min at 270,000 g and washed three times by centrifugation. Generally, 20,000-100,000 proteoliposomes were selected according to sideward and forward scatter areas. Single events were selected based on the height of forward scatter plotted against the area of forward scatter. […] Data represent mean ± SD from three experiments.

[2] = tested on: TmrAB; experiment: Competition of C4F peptide binding by CP^Bs (fluorescence anisotropy); design: species or system Thermus thermophilus; conditions: C4F 50 nM + TmrAB 4 µM + competitor (CP^B 6 µM or C4^ATTO655 10 µM)
Excerpt: To elucidate the mechanistic basis for the inhibition of ATP hydrolysis and substrate transport, we investigated the effects of CPs on substrate binding. In the first approach, fluorescent CP^Fs were used as reporters in fluorescence polarization. […] In addition, we examined the impact of CP^Bs on ATP binding to TmrAB by scintillation proximity assays (SPA) (Figure 4C). […] Taken together, CPs are high-affinity allosteric inhibitors of TmrAB that leave ATP binding and substrate interaction largely unaffected, while impairing ATP hydrolysis and substrate translocation across the membrane.
Figure 4. […] (A) CP^Fs binding TmrAB is not affected by substrate peptide binding. […] For competition, C4^ATTO655 peptide (2 µM) or R9LQK peptide (200 µM) were added. (B) Binding of C4F peptide is not affected by CP^Bs. C4F peptides (50 nM) were mixed with TmrAB (4 µM), and fluorescence anisotropy was monitored as described in (A). For competition, C4^ATTO655 (10 µM) or CP^Bs (6 µM) were added. […] TmrAB (0.2 µM) were immobilized on SPA beads and incubated with ATP (3 μM, traced with ^3H-ATP) in the presence and absence of CP^Bs (1 µM each) for 30 min on ice. ATP binding was monitored by SPA. Background values were determined after releasing TmrAB complexes from the beads by adding imidazole (200 mM). The background signal in the absence of CP^Bs was set to 0 cpm. […] As this is an equilibrium experiment, this can be rationalized by the fact that CP13 stabilizes the ATP-bound OF conformer. Figure 4—source data 1. Source data for Figure 4.
To determine equilibrium binding constants, CP^Fs (50 nM) were incubated with increasing concentrations of TmrAB-containing or empty liposomes. To probe the conformational selectivity, CP^Fs (50 nM) were mixed with detergent-solubilized IF TmrAB or OF TmrA^EQB. Before, OF TmrA^EQB was nucleotide-trapped by incubation with ATP (1 mM) and MgCl2 (3 mM) in the absence of CP^Fs for 5 min at 45°C. […] For peptide competition studies, RRYC^fluoresceinKSTEL (C4F, 50 nM) were incubated with detergent-solubilized TmrAB (4 µM), CP^Bs (6 µM), or C4^ATTO655 (10 µM). […] Fluorescence anisotropy was analyzed at λex/em of 485/520 nm using a microplate reader (CLARIOstar, BMG LABTECH). Fluorescence anisotropy was calculated using:(1) r=I||−I⊥/I||+2⋅I⊥ with I||: parallel intensity and I⊥: perpendicular intensity. Binding of CP^Fs were fitted by a one-site binding model (Langmuir 1:1) using:(2) Y=Bmax∙[L]/KD+[L] with Y: binding, Bmax: maximal binding, KD: equilibrium dissociation constant, and [L]: ligand concentration. Data represent mean ± SD from three experiments.

[3] = time 5 min (after first 5 min at 45°C)
[4] = time 65 min (after 60 min at 4°C)
[5] = time 70 min (after second 5 min at 45°C)
[6] = time 130 min (after second 60 min at 4°C)

SMILES | Peptide transport in two successive IF-to-OF cycles [1] | Effect on C4^ATTO655 peptide translocation ([1]; CP^F 1 µM, 5 min 45°C) | Transported C4^ATTO655, Peptides/liposome ([1]; CP^F 1 µM, 5 min 45°C) [Peptides/liposome] | Peptides/liposome, two consecutive transport cycles ([1]; time 0 min) [Peptides/liposome] | Peptides/liposome, two consecutive transport cycles [1, 3] [Peptides/liposome] | Peptides/liposome, two consecutive transport cycles [1, 4] [Peptides/liposome] | Peptides/liposome, two consecutive transport cycles [1, 5] [Peptides/liposome] | Peptides/liposome, two consecutive transport cycles [1, 6] [Peptides/liposome] | Bound C4F peptide, fluorescence anisotropy [2] | also measured
CC[C@H](C)[C@@H]1NC(=O)[C@H]([C@@H](C)O)NC(=O)[C@H](CC(C)C)NC(=O)[C@H](Cc2c[nH]c3ccccc23)NC(=O)[C@H](Cc2ccccc2)NC(=O)[C@H](CC(N)=O)NC(=O)[C@H](CCC(=O)O)NC(=O)[C@H](CC(C)C)NC(=O)[C@H](CS)NC(=O)[C@H](Cc2c[nH]cn2)NC(=O)[C@H](CO)NC(=O)[C@@H](Cc2ccc(O)cc2)NC(=O)CSC[C@@H](C(=O)NCC(=O)N[C@@H](CO)C(=O)NCCC(=O)NCCC(=O)N[C@@H](CCCNC(=N)N)C(=O)N[C@@H](CCCCNC(=O)c2ccc3c(c2)C(=O)OC32c3ccc(O)cc3Oc3cc(O)ccc32)C(N)=O)NC(=O)[C@H](CC(C)C)NC1=O [CP6] ({CH2CO}-[dY]SHCLENFWLTILCGS[βAla][βAla]RK(5FAM)-NH2; thioether N-14) | peptide translocation was completely abrogated | completely prevented C4^ATTO655 peptide translocation | 4.74 | 0.00 | 0.17 | 0.01 | 1.93 | 1.54 | 0.124 | –
CC(C)C[C@@H]1NC(=O)[C@H](Cc2ccccc2)NC(=O)CNC(=O)[C@H](CO)NC(=O)[C@H](Cc2ccccc2)NC(=O)[C@H](CC(=O)O)NC(=O)[C@@H]2CCCN2C(=O)[C@H]([C@@H](C)O)NC(=O)[C@@H](Cc2ccc(O)cc2)NC(=O)CSC[C@@H](C(=O)NCC(=O)N[C@@H](CO)C(=O)NCCC(=O)NCCC(=O)N[C@@H](CCCNC(=N)N)C(=O)N[C@@H](CCCCNC(=O)c2ccc3c(c2)C(=O)OC32c3ccc(O)cc3Oc3cc(O)ccc32)C(N)=O)NC(=O)[C@H](C)NC(=O)[C@H](CC(N)=O)NC(=O)[C@H](CCCNC(=N)N)NC(=O)[C@H](CC(C)C)NC(=O)[C@H](Cc2ccccc2)NC(=O)[C@H](C)NC1=O [CP12] ({CH2CO}-[dY]TPDFSGFLAFLRNACGS[βAla][βAla]RK(5FAM)-NH2; thioether N-16) | peptide translocation was completely abrogated | completely prevented C4^ATTO655 peptide translocation | 4.93 | 0.00 | 1.11 | 1.17 | 1.70 | 1.01 | 0.128 | –
CC[C@H](C)[C@@H]1NC(=O)[C@H](Cc2c[nH]c3ccccc23)NC(=O)[C@H](CC(N)=O)NC(=O)[C@H](C)NC(=O)[C@H](CO)NC(=O)[C@@H]2CCCN2C(=O)[C@H](CC(=O)O)NC(=O)[C@@H](Cc2ccc(O)cc2)NC(=O)CSC[C@@H](C(=O)NCC(=O)N[C@@H](CO)C(=O)NCCC(=O)NCCC(=O)N[C@@H](CCCNC(=N)N)C(=O)N[C@@H](CCCCNC(=O)c2ccc3c(c2)C(=O)OC32c3ccc(O)cc3Oc3cc(O)ccc32)C(N)=O)NC(=O)[C@H]([C@@H](C)O)NC(=O)[C@H](CC(C)C)NC(=O)[C@H](CC(C)C)NC(=O)[C@H](C(C)C)NC(=O)[C@H](CC(C)C)NC1=O [CP13] ({CH2CO}-[dY]DPSANWILVLLTCGS[βAla][βAla]RK(5FAM)-NH2; thioether N-14; C-terminus assumed) | peptide transport was exclusively observed along the first IF-to-OF switch | – | 13.69 | 0.00 | 9.32 | 10.24 | 10.66 | 11.66 | 0.141 | Peptides/liposome, time course ([1]; 1 min at 45°C, CP^F 1 µM): -0.42 Peptides/liposome; Mean fluorescence intensity * 10^3, time course ([1]; 1 min at 45°C, CP^F 1 µM, without CP 2.29): -0.03 * 10^3; Peptides/liposome, time course ([1]; 3 min at 45°C, CP^F 1 µM): 2.53 Peptides/liposome; Mean fluorescence intensity * 10^3, time course ([1]; 3 min at 45°C, CP^F 1 µM, without CP 10.49): 0.17 * 10^3; Peptides/liposome, time course ([1]; 5 min at 45°C, CP^F 1 µM): 3.33 Peptides/liposome; Mean fluorescence intensity * 10^3, time course ([1]; 5 min at 45°C, CP^F 1 µM, without CP 18.11): 0.23 * 10^3; Peptides/liposome, time course ([1]; 10 min at 45°C, CP^F 1 µM): 5.08 Peptides/liposome; Mean fluorescence intensity * 10^3, time course ([1]; 10 min at 45°C, CP^F 1 µM, without CP 30.27): 0.35 * 10^3; Peptides/liposome, time course ([1]; 20 min at 45°C, CP^F 1 µM): 4.95 Peptides/liposome; Mean fluorescence intensity * 10^3, time course ([1]; 20 min at 45°C, CP^F 1 µM, without CP 40.72): 0.34 * 10^3; Peptides/liposome, time course ([1]; 40 min at 45°C, CP^F 1 µM): 5.22 Peptides/liposome; Mean fluorescence intensity * 10^3, time course ([1]; 40 min at 45°C, CP^F 1 µM, without CP 51.44): 0.36 * 10^3; C4^ATTO655 peptides per liposome transported along a single IF-to-OF switch ([1]; CP^F 1 µM, 5 min 45°C, ~30 transport-competent TmrAB per liposome): approx. 10 peptides per liposome; Peptide transport rate compared to control without CP^Fs ([1]; period of 40 min at 45°C): drastically reduced the peptide transport rate; Turnover of wild-type TmrAB over long-term incubation ([1]; period of 40 min at 45°C): a single turnover driving peptide transport was observed; Period of conformational arrest of wild-type TmrAB ([1]; two consecutive cycles): 2 h
